This note sets out measurements from US20190090458A1, “DEVICE FOR OBTAINING AGE/SIZE-MATCHED NEMATODES AND METHODS OF USE” (University of Alaska, Fairbanks, priority 2017, published 2019).

The subject of assay [1] is C. elegans. Kind of assay: Motility assay (motility class scoring). The format is in vivo. To be noted: 100 μM FUDR in NGM; days 2, 4, 6 and 8 of adulthood; p>0.05. Here is the method: (§1) The three groups tested were separated by: 1) individual picking, wherein nematodes were selected and transferred manually using a platinum loop; 2) the chemical treatment fluorodeoxyuridine (FUDR), wherein 100 mg/mL FUDR was added to the NGM media to a final concentration of 100 μM to prevent any progeny production, and then the nematodes were transferred every other day to a fresh NGM plate to avoid food depletion; and, 3) the device of Example 1.
In C. elegans the normal sinusoidal movement (i.e., motility) declines with age and is a marker of overall health. To determine if the present device influenced motility, motility scores were compared for pick, FUDR, and present filter membrane device treatment groups on days 2, 4, 6, and 8 of adulthood. The mobility assay was performed as disclosed by Hendon et al. Stochastic and genetic factors influence tissue-specific decline in ageing C. elegans. Nature. 419 (6909), 808-814 (2002). The nematodes were assigned a motility score and assigned to a class (A, B, or C). Class A individuals move spontaneously in a normal, sinusoidal pattern. Class B individuals move in markedly non-sinusoidal movements and may require prodding to encourage movement. Class C individuals move their head and/or tail in response to prodding but are unable to move across the agar.

Assay [2] deals with C. elegans. In words: Pharyngeal pump rate. Format: in vivo. As to conditions: 100 μM FUDR in NGM; days 6 and 8 of adulthood; p<0.001. The method, then:
as §1
The ability of C. elegans' pharyngeal muscles to pump declines with age and is another biomarker of healthspan. To determine if the present filter membrane device influenced the nematodes' pharyngeal pump rate, the three treatment groups were compared on days 2, 4, 6, and 8 of adulthood (n=8 to 10 per group). The grinder movement of the nematode's terminal pharyngeal bulb was visually counted under a stereomicroscope at a 600× final magnification for 1 minute, wherein a statistical analysis with a one-way ANOVA with α=0.05 and Bonferroni post-tests with α=0.05 was performed.

Assay [3] relates to C. elegans. Kind of assay: Gentle touch response (anterior and posterior). Format: in vivo. As to conditions: 100 μM FUDR in NGM; any day of testing (days 2, 4, 6, 8); p>0.4. The method, then: as §1
Response to mechanical stimulus is a physiological marker to assess aging or general health; thus, the impact of different transfer methods on both the anterior and the posterior gentle touch responses were tested. Responses to a gentle touch were compared between the three treatment groups, wherein the assay was performed based on the methods described by Calixto et al. Enhanced neuronal RNAi in C. elegans using SID-1. Nature Methods. 7 (7), 554-559 (2010). The anterior and posterior touch response was recorded by gently stroking an eyelash pick perpendicularly across the tail or the head (5× each, alternating head and tail) of the animals. Any movement in the opposite direction of the stroke was scored as 1 point on a scale of 0 to 5 for both the anterior and the posterior response. A statistical analysis with a one-way ANOVA with α=0.05 and Bonferroni post-tests with α=0.05 was conducted using the recorded scored.

For a further assay, the system named is sod-3::gfp. Kind of assay: sod-3::gfp fluorescent reporter stress response assay. Format: in vivo, C. elegans. To be noted: 100 μM paraquat, positive control; strain CF1553; p<0.05. The method, then:
Three commonly used fluorescent reporter assays were performed to detect potential markers of stress: a DAF-16::GFP translocation into the nuclei of cells in a strain [TJ356-zIs356 (pDAF-16::DAF-16-GFP;rol-6)]; an hsp-16.2 expression [TJ375-gpls 1 (hsp-16.2p::GFP)]; and a sod-3 expression [CF1553-muIs84([pAD76]sod-3p::GFP+rol-6[su1006])]. Henderson, S. T., Johnson, T. E. daf-16 integrates developmental and environmental inputs to mediate aging in the nematode Caenorhabditis elegans. Current Biology. 11 (24), 1975-1980 (2001); Rea, S. L., Wu, D., Cypser, J. R., Vaupel, J. W., Johnson, T. E. A stress-sensitive reporter predicts longevity in isogenic populations of Caenorhabditis elegans. Nature Genetics. 37 (8), 894-898 (2005); and, Libina, N., Berman, J. R., Kenyon, C. […]
At day 3 of adulthood, the nematodes were harvested with an eyelash pick and mounted to a coverslip with 1 μL of a 36% poloxamer 407 surfactant solution to immobilize the nematodes. […] Differences in the fluorescent localization between the three groups was recorded and results compared using an ordinal logistics statistical model in statistical analysis software (DAF-16::GFP assay) and for the hsp-16.2 and the sod-3 expression assays, a one-way ANOVA with α=0.05 and Tukey's post hoc tests with α=0.05 was used to compare the total fluorescence of the head region. […]

Each structure is given as a SMILES string.

Turning to `O=c1[nH]c(=O)n([C@H]2C[C@H](O)[C@@H](CO)O2)cc1F` [FUDR, 5-fluorodeoxyuridine], the “motility class distribution compared with pick and device groups” value with C. elegans [1] was “no difference”. The “pharyngeal pump rate, FUDR versus picking group” value in the assay on C. elegans [2] is on record as “significant difference”. The “anterior and posterior gentle touch response compared with pick and device groups” value in the assay on C. elegans [3] is “no statistically significant difference”.
For the molecule `C[n+]1ccc(-c2cc[n+](C)cc2)cc1` [paraquat], the “SOD-3 expression (sod-3::gfp fluorescence of head region) versus pick and device groups” value in the assay on sod-3::gfp was “high expression of sod-3::gfp”.
